Laboratory results published in the kinase profiling compilation of Christmann-Franck et al. (2016).

Columns and labels:
CAMKK1 (human) = CAMKK1 (human) (UniProt Q8N5S9); assay: KINOMEscan competition binding; conditions: compound 10.0 µM
CDK7 (human) = CDK7 (human) (UniProt P50613); assay: KINOMEscan competition binding; conditions: compound 10.0 µM
CLK1 (human) = CLK1 (human) (UniProt P49759); assay: KINOMEscan competition binding; conditions: compound 10.0 µM
CLK2 (human) = CLK2 (human) (UniProt P49760); assay: KINOMEscan competition binding; conditions: compound 10.0 µM
CLK4 (human) = CLK4 (human) (UniProt Q9HAZ1); assay: KINOMEscan competition binding; conditions: compound 10.0 µM
CSNK2A1 (human) = CSNK2A1 (human) (UniProt P68400); assay: KINOMEscan competition binding; conditions: compound 10.0 µM
DAPK2 (human) = DAPK2 (human) (UniProt Q9UIK4); assay: KINOMEscan competition binding; conditions: compound 10.0 µM
Sequence of DAPK2 (human) (Q9UIK4 whole entry, looked up): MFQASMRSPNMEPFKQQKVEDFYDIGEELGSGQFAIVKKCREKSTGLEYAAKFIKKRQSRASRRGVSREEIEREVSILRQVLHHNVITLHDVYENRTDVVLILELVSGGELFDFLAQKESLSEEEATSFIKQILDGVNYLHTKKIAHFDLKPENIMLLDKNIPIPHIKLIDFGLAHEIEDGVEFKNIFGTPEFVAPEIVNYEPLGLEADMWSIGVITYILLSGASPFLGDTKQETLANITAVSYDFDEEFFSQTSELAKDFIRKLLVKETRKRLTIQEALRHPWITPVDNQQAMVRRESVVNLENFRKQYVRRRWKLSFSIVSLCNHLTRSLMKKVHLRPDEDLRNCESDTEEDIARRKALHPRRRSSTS

DYRK1B (human) = DYRK1B (human) (UniProt Q9Y463); assay: KINOMEscan competition binding; conditions: compound 10.0 µM
HIPK1 (human) [1] = target: HIPK1 (human) (UniProt Q86Z02); assay: KINOMEscan competition binding; conditions: compound 10.0 µM
Sequence of HIPK1 (human) (Q86Z02 whole entry, looked up): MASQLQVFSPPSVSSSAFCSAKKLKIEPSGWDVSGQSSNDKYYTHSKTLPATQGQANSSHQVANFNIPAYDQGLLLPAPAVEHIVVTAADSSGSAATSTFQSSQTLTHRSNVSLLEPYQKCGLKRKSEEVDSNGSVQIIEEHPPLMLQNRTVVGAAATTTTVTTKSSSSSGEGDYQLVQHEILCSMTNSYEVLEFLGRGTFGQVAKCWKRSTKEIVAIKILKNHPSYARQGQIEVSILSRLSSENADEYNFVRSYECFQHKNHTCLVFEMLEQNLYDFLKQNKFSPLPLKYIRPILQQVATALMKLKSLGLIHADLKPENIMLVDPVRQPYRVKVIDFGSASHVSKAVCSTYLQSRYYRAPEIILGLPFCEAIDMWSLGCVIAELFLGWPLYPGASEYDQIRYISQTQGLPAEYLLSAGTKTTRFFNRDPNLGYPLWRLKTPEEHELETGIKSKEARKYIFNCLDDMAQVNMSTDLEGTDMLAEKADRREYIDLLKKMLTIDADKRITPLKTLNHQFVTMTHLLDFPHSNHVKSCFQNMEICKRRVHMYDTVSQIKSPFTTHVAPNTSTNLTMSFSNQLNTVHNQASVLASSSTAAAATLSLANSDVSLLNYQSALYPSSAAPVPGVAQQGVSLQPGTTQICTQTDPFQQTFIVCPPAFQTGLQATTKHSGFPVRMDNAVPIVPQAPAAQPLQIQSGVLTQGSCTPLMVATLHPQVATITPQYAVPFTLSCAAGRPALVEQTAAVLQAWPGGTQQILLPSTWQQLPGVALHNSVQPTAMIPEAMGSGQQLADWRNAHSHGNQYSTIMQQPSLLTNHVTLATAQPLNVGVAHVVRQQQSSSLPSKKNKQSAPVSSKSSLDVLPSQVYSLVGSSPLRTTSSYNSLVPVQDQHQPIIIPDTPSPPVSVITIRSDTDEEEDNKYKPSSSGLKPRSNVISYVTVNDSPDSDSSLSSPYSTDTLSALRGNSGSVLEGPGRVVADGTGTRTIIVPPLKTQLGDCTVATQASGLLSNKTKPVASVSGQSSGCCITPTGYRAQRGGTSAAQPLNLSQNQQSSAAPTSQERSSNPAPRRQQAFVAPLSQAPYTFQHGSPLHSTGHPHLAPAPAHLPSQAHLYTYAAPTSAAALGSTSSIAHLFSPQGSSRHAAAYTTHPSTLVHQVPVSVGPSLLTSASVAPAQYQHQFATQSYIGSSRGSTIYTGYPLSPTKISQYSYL

MAPK15 (human) = MAPK15 (human) (UniProt Q8TD08); assay: KINOMEscan competition binding; conditions: compound 10.0 µM
MINK1 (human) = MINK1 (human) (UniProt Q8N4C8); assay: KINOMEscan competition binding; conditions: compound 10.0 µM
[2] = system: PIK3CA (human), P42336 [E545K]; assay: KINOMEscan competition binding; conditions: compound 10.0 µM
PIM1 (human) [3] = target: PIM1 (human) (UniProt P11309); assay: KINOMEscan competition binding; conditions: compound 10.0 µM
Sequence of PIM1 (human) (P11309 whole entry, looked up): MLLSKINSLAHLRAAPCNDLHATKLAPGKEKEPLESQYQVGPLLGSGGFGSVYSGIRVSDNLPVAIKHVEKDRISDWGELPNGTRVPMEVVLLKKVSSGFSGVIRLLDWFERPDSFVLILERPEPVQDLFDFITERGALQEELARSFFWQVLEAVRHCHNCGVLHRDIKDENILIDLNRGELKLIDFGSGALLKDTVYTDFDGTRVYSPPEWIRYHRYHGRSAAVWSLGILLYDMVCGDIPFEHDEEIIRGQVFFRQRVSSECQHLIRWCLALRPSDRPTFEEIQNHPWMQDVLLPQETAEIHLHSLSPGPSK

PIM2 (human) [4] = target: PIM2 (human) (UniProt Q9P1W9); assay: KINOMEscan competition binding; conditions: compound 10.0 µM
Sequence of PIM2 (human) (Q9P1W9 whole entry, looked up): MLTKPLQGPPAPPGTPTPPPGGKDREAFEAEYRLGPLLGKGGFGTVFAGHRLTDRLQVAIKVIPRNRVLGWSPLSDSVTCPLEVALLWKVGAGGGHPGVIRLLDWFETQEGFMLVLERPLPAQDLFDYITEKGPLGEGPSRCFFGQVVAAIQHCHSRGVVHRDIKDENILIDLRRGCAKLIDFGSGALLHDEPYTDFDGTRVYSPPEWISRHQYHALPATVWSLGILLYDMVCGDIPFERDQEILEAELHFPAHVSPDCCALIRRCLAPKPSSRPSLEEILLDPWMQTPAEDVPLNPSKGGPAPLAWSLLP

PIM3 (human) = PIM3 (human) (UniProt Q86V86); assay: KINOMEscan competition binding; conditions: compound 10.0 µM
RPS6KA4 KD2 (human) = RPS6KA4 KD2 (human) (UniProt O75676); assay: KINOMEscan competition binding; conditions: compound 10.0 µM
STK17A (human) = STK17A (human) (UniProt Q9UEE5); assay: KINOMEscan competition binding; conditions: compound 10.0 µM
Sequence of STK17A (human) (Q9UEE5 whole entry, looked up): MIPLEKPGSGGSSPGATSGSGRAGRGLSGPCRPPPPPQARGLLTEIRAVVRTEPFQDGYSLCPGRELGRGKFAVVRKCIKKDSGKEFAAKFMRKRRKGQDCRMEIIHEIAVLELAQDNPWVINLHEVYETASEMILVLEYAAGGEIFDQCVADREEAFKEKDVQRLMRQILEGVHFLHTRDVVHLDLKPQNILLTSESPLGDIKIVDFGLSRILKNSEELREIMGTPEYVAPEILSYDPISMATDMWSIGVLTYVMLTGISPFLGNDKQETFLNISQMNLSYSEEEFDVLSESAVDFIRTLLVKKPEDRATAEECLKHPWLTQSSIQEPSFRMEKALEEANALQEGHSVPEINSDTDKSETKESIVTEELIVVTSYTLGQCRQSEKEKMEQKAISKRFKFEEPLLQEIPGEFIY

STK17B (human) = STK17B (human) (UniProt O94768); assay: KINOMEscan competition binding; conditions: compound 10.0 µM
Sequence of STK17B (human) (O94768 whole entry, looked up): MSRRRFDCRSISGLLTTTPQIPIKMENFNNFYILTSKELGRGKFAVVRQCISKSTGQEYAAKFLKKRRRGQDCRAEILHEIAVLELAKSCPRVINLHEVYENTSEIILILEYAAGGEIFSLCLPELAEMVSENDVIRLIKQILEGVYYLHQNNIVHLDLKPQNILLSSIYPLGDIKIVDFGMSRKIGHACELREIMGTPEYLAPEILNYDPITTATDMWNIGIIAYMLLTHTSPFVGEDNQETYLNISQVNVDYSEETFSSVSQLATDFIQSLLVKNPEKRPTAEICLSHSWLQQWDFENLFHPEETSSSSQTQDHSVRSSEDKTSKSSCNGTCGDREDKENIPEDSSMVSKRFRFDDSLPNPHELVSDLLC

TAOK1 (human) = TAOK1 (human) (UniProt Q7L7X3); assay: KINOMEscan competition binding; conditions: compound 10.0 µM
TAOK3 (human) = TAOK3 (human) (UniProt Q9H2K8); assay: KINOMEscan competition binding; conditions: compound 10.0 µM
TGFBR2 (human) = TGFBR2 (human) (UniProt P37173); assay: KINOMEscan competition binding; conditions: compound 10.0 µM
PIM1 (human) [5] = target: PIM1 (human) (UniProt P11309); assay: SelectScreen, TR FRET
PIM2 (human) [6] = target: PIM2 (human) (UniProt Q9P1W9); assay: SelectScreen, TR FRET
HIPK1 (human) [7] = target: HIPK1 (human) (UniProt Q86Z02); assay: SelectScreen, TR FRET
HIPK2 (human) = HIPK2 (human) (UniProt Q9H2X6); assay: SelectScreen, TR FRET
CAMK2A (human) = CAMK2A (human) (UniProt Q9UQM7); assay: KINOMEscan competition binding; conditions: compound 10.0 µM
CAMK2D (human) = CAMK2D (human) (UniProt Q13557); assay: KINOMEscan competition binding; conditions: compound 10.0 µM
Sequence of CAMK2D (human) (Q13557 whole entry, looked up): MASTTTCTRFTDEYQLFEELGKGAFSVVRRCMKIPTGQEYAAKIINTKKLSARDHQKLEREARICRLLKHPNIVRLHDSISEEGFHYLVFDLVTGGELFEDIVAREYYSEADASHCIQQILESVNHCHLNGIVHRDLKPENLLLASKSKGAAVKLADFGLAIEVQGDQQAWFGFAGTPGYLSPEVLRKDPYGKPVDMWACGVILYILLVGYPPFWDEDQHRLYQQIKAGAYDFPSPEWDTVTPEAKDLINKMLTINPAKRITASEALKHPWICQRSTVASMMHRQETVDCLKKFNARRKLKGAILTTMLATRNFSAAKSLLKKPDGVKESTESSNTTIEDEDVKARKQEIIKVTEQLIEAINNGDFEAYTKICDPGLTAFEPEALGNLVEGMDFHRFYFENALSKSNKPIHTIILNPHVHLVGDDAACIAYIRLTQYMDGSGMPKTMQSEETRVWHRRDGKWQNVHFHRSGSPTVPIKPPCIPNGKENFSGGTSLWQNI

CAMK2G (human) = CAMK2G (human) (UniProt Q13555); assay: KINOMEscan competition binding; conditions: compound 10.0 µM
DCLK1 (human) = DCLK1 (human) (UniProt O15075); assay: KINOMEscan competition binding; conditions: compound 10.0 µM
MKNK2 (human) = MKNK2 (human) (UniProt Q9HBH9); assay: KINOMEscan competition binding; conditions: compound 10.0 µM
Sequence of MKNK2 (human) (Q9HBH9 whole entry, looked up): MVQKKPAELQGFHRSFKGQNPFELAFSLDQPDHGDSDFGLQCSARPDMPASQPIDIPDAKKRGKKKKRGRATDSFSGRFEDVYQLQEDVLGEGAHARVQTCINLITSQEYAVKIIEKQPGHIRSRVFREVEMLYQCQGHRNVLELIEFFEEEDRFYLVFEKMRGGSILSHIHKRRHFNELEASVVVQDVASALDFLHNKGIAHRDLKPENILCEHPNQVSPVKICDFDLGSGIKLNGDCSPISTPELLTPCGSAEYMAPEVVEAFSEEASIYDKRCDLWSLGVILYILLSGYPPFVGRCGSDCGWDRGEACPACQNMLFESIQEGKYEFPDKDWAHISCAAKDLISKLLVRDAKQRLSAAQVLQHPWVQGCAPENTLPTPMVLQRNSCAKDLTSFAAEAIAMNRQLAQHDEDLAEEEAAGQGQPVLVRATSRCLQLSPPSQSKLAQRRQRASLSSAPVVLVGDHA

MYLK (human) = MYLK (human) (UniProt Q15746); assay: KINOMEscan competition binding; conditions: compound 10.0 µM
PLK1 (human) = PLK1 (human) (UniProt P53350); assay: KINOMEscan competition binding; conditions: compound 10.0 µM
STK33 (human) = STK33 (human) (UniProt Q9BYT3); assay: KINOMEscan competition binding; conditions: compound 10.0 µM

Sequence of CLK1 (human) (P49759 whole entry, looked up): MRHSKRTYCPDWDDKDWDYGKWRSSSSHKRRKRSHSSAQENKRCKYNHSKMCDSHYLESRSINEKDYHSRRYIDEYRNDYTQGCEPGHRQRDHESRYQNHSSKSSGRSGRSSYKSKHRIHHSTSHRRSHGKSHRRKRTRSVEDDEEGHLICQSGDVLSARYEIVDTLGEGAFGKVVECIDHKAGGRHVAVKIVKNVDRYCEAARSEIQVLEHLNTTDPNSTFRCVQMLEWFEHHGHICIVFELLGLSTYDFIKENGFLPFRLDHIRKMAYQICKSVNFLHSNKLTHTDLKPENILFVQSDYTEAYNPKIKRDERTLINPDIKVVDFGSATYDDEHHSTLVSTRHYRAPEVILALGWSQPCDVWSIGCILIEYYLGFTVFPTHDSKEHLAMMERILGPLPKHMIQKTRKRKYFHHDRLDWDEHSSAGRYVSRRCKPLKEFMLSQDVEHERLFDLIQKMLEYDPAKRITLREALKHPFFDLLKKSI
Sequence of CAMKK1 (human) (Q8N5S9 whole entry, looked up): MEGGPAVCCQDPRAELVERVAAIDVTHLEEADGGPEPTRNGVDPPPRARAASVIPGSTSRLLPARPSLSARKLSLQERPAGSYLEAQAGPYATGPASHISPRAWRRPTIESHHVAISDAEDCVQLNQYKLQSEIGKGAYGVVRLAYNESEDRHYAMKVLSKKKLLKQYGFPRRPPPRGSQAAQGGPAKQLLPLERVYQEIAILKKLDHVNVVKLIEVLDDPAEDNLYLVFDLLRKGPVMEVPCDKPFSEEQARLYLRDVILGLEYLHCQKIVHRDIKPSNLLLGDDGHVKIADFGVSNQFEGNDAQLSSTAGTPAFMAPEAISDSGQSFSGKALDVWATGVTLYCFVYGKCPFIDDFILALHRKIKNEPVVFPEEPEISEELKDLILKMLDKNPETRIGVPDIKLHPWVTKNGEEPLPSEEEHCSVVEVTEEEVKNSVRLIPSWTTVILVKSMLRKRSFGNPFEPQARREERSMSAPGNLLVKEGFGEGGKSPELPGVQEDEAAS

CC(=O)Nc1ccc(-c2ccc(/C=C3\SC(=N)NC3=O)o2)c(O)c1
kinase still bound, per cent of control (CAMKK1 (human)): 30%
kinase still bound, per cent of control (CDK7 (human)): 3.9%
kinase still bound, per cent of control (CLK1 (human)): 16%
kinase still bound, per cent of control (CLK2 (human)): 4.8%
kinase still bound, per cent of control (CLK4 (human)): 13%
kinase still bound, per cent of control (CSNK2A1 (human)): 32%
kinase still bound, per cent of control (DAPK2 (human)): 24%
kinase still bound, per cent of control (DYRK1B (human)): 23%
kinase still bound, per cent of control (HIPK1 (human) [1]): 2.6%
kinase still bound, per cent of control (MAPK15 (human)): 0.4%
kinase still bound, per cent of control (MINK1 (human)): 33%
kinase still bound, per cent of control [2]: 25%
kinase still bound, per cent of control (PIM1 (human) [3]): 1.6%
kinase still bound, per cent of control (PIM2 (human) [4]): 1.6%
kinase still bound, per cent of control (PIM3 (human)): 2.2%
kinase still bound, per cent of control (RPS6KA4 KD2 (human)): 29%
kinase still bound, per cent of control (STK17A (human)): 0.7%
kinase still bound, per cent of control (STK17B (human)): 3%
kinase still bound, per cent of control (TAOK1 (human)): 4%
kinase still bound, per cent of control (TAOK3 (human)): 8.6%
kinase still bound, per cent of control (TGFBR2 (human)): 13%
IC50 (PIM1 (human) [5]): 0.959 µM
IC50 (PIM2 (human) [6]): 0.298 µM

O=C1NC(=O)/C(=C/c2c[nH]c(=O)c(-c3ccc(N4CCC(N5CCCC5)CC4)nc3)c2)S1
IC50 (HIPK1 (human) [7]): 6.53 µM
IC50 (HIPK2 (human)): 4.9 µM

CCN1C(=O)CC(c2ccccc2)N(C2CCCC2)c2nc(Nc3ccc(C(=O)NC4CCN(C)CC4)cc3OC)ncc21 (stereo not drawn)
kinase still bound, per cent of control (CAMK2A (human)): 20%
kinase still bound, per cent of control (CAMK2D (human)): 30%
kinase still bound, per cent of control (CAMK2G (human)): 26%
kinase still bound, per cent of control (DCLK1 (human)): 23%
kinase still bound, per cent of control (MKNK2 (human)): 33%
kinase still bound, per cent of control (MYLK (human)): 26%
kinase still bound, per cent of control (PLK1 (human)): 0.55%
kinase still bound, per cent of control (STK33 (human)): 20%
